Where “and” joins values, the source holds several entries; their conditions need not be identical. Identical values can stand only once. Like-named read-outs stand apart in the source and are kept apart here.
How the values were obtained:
[1] = Pharmacokinetics and tissue distribution in rats; assay type: in vivo, rat; conditions: for Kp: intraperitoneal
Method: To assess pharmacokinetic profile and tissue penetration of 2 and 3, the male Wistar rats were a single intraperitoneal (i.p.) injected with these compounds dissolved in tween (vehicle volume 1 mL/kg) at a dose of 0.3 mg/kg, determined in behavioral studies. The animals were killed by decapitation under deep anesthesia (i.p. injection of 50 mg/kg ketamine and 7.5 mg/kg xylazine) at 5, 15, 30, 60, 120 and 240 min after compounds administration (four animals per time point) and blood samples (approximately 5–6 mL) were collected into tubes. Moreover, five tissues (i.e., brain, heart, lungs, kidneys and liver) were harvested, rinsed with cold saline, and the wet weights determined. Blood was allowed to clot for 15–20 min at room temperature and then centrifuged (3000 rpm for 10 min). The obtained serum and tissues were stored frozen at −80 °C until analysis.
The concentrations of both test compounds in serum and tissue homogenates were measured by a reverse-phase high-performance liquid chromatography method with ultraviolet detection (HPLC/UV). […] The mobile phase consisted of methanol/10 mM potassium dihydrogen phosphate buffer, pH 4.6/acetonitrile (51/40/9, v/v/v). The isocratic separation was performed at 1.0 mL/min constant flow-rate with column temperature maintained at 38 °C. The detection wavelength was set at 206 nm for 2 and at 215 nm for 3. […] EZChrome Elite v. 3.3.2 software (VWR, Darmstadt, Germany) was used for data acquisition.
Before analysis, tissue samples were thawed, placed in four volumes (w/v) of phosphate-buffered saline (PBS, pH 7.4) and homogenized using a MICCRA D-1 homogenizer (ART Prozess- & Labortechnik GmbH & Co., Heitersheim, Germany). To isolate 2 or 3, 500 µL of rat serum or tissue homogenate containing this compound were mixed with a 20-μL volume of IS solution (50 ng/mL or 200 ng/g in methanol). As an IS for compound 2 quantification, compound 3 was used and vice versa.
The samples were alkalized with 50 μL of 4 M sodium hydroxide solution, vortex-mixed, and extracted with 1 mL of ethyl acetate/hexane (30/70, v/v) mixture on a shaker (VXR Vibrax, IKA, Legnica, Poland) for 20 min. After centrifugation (Eppendorf, Mini Spin Plus, Hamburg, Germany), the organic layers were transferred into new tubes containing 100 μL of methanol and 0.1 M sulfuric acid (10/90, v/v) mixture. Then, the samples were shaken and centrifuged again. Finally, 20–90 μL of each acidic layer was injected into the HPLC system.
Other pharmacokinetic parameters were determined on subjecting the concentration–time data to non-compartmental analysis using Phoenix WinNonlin 8.2 software (Pharsight Corporation, a Certara Company, Princeton, NJ, USA).

[2] = system: MK-801-induced memory deficits in rats; experiment: Novel object recognition (NOR) test, MK-801-induced memory impairment; assay type: in vivo, rat; conditions: for Total Exploratory Time in T2 Session: mean ± SEM
Method: Five days before the experiment, the rats were transferred to the laboratory, labelled and, thereafter, left to acclimate to the new environment. The animals were handling every five days before experiments to minimize the stress reaction. The protocol was adapted from the original work. The test session comprising of two trials separated by an inter-trial interval (ITI) of 1 h was carried out after 2 days of the training session. During the first trial (familiarization, T1) two identical objects (A1 and A2) were presented in the opposite corners of the open field, approximately 10 cm from the walls. During the second trial (recognition, T2) one of the A objects was replaced by a novel object B, so that the animals were presented with the A = familiar and B = novel objects. Both trials lasted for 3 min and the animals were returned to their home cages after T1.
The objects used were the metal Coca-Cola cans and the glass jars filled with sand. […] The sequence of presentations and the location of the objects were randomly assigned to each rat. After each measurement, the floor was cleaned and dried.
The animals explored the objects by looking, licking, sniffing or touching the object but not when leaning against, standing or sitting on the object. Any rat exploring the two objects for less than 5 s within 3 min of T1 or T2 was eliminated from the study. The exploration time of the objects was measured by a blind experimenter. Based on the exploration time (E) of two objects during T2, the discrimination index (DI) was calculated according to the formula: DI = (EB − EA)/(EA + […]). Using this metric, scores approaching zero reflects no preference while positive values reflect a preference for the novel object and negative numbers reflect a preference for the familiar.
MK-801, used to attenuate learning, was administered at the dose of 0.1 mg/kg (i.p.) 30 min before the familiarization phase (T1), while investigated compounds were given 60 min before T1 session. In such scheme of experiment we could observe the impact of investigated compounds on the one type of rats’ memory—episodic memory and one phase of memory process—[…].
The total exploration time in T2 was used to express the influence of the treatment on the exploratory activity of the animals.

[3] = system: rats; experiment: Exploratory activity measured in the EPM test; assay type: in vivo, rat; conditions: mean ± SEM
Method: The experiment was performed using an EPM apparatus (details see above). Total ambulation (the total distance covered by a rat, and ambulation along X and Y axis) was taken to discern drug effects on general activity from those on open-arm exploration, during a 5-min test period (i.e., the time equal to the observation period in the EPM test). Rats’ behavior was not videotaped during the test.

[4] = target: human 5-HT6R; conditions: ± SD; read-out: Ki 5-HT6 (converted); cited from earlier work
[5] = rat serum, 0.3 mg/kg i.p., 0.3 mg/kg

CCC(Oc1cccc(Cl)c1Cl)c1nc(N)nc(N2CCN(C)CC2)n1 (racemic) [Compound 2, (RS)-4-[1-(2,3-dichlorophenoxy)propyl]-6-(4-methylpiperazin-1-yl)-1,3,5-triazin-2-amine]
Kp, brain ([1]; AUC0-t tissue / AUC0-t serum): 2.69
Kp, kidneys ([1]; AUC0-t tissue / AUC0-t serum): 16.52
MRT ([1]; male, Wistar, ip, rat serum, 0.3 mg/kg i.p.): 90.1 min
Kp ([1]; male, Wistar, rat, brain (vs serum), 0.3 mg/kg, AUC0-t tissue / AUC0-t serum, read-out: Kp, brain): 2.03
half-life ([1]; male, Wistar, rat, brain, ip, 0.3 mg/kg, rat, 0.3 mg/kg i.p., read-out: elimination half-life, brain tissue): 149 min
Kp ([1]; male, Wistar, rat, heart / serum, 0.3 mg/kg, AUC0-t tissue / AUC0-t serum, read-out: Kp, heart): 2.3
Tmax ([1]; male, Wistar, rat, heart, ip, 0.3 mg/kg, rat, 0.3 mg/kg i.p., read-out: Tmax, heart (converted)): 5 min
Kp ([1]; male, Wistar, rat, kidneys (vs serum), 0.3 mg/kg, AUC0-t tissue / AUC0-t serum, read-out: Kp, kidneys): 16.5
Tmax ([1]; male, Wistar, rat, kidneys, ip, 0.3 mg/kg, rat, 0.3 mg/kg i.p., read-out: Tmax, kidneys (converted)): 15 min
Kp ([1]; male, Wistar, rat, liver (vs serum), 0.3 mg/kg, AUC0-t tissue / AUC0-t serum, read-out: Kp, liver): 14.4
Tmax ([1]; male, Wistar, rat, liver, ip, 0.3 mg/kg, rat, 0.3 mg/kg i.p., read-out: Tmax, liver (converted)): 15 min
Kp ([1]; male, Wistar, rat, lungs / serum, 0.3 mg/kg, AUC0-t tissue / AUC0-t serum, read-out: Kp, lungs): 8.54
Tmax ([1]; male, Wistar, rat, lungs, ip, 0.3 mg/kg, rat, 0.3 mg/kg i.p., read-out: Tmax, lungs (converted)): 5 min
CL/F ([1]; male, Wistar, rat, serum, ip, 0.3 mg/kg, rat serum, 0.3 mg/kg i.p., read-out: CL/F (converted)): 515 mL/min/kg
Tmax ([1]; male, Wistar, rat, serum, ip, 0.3 mg/kg, rat, 0.3 mg/kg i.p., read-out: Tmax, serum (converted)): 15 min
half-life ([1]; male, Wistar, rat, serum, ip, 0.3 mg/kg, rat, 0.3 mg/kg i.p., read-out: t1/2λz, serum): 116 min
Cmax ([1]; male, Wistar, serum, ip, rat, 0.3 mg/kg i.p., mean ± SD): 5.2 ± 2.24 ng/mL
AUC(0-t) ([1]; male, Wistar, serum, ip, rat, 0.3 mg/kg i.p., mean ± SD, read-out: AUC0-t, serum (converted)): 7.56 ng·h/mL
AUC(0-inf) ([1]; male, Wistar, serum, ip, rat, 0.3 mg/kg i.p., mean ± SD, read-out: AUC0-∞, serum (converted)): 8.85 ng·h/mL
CL/F [1, 5]: 514.5 ± 165 mL/min/kg
Vz/F [1, 5]: 81 L/kg and 80.99 ^a ± 18.22 L/kg
AUC0-t, brain ([1]; rat, 0.3 mg/kg i.p.): 1219.94 ± 368.79 ng·min/mL or ng·min/g
AUC0-t, liver ([1]; rat, 0.3 mg/kg i.p.): 6523.60 ± 4997.28 ng·min/mL or ng·min/g
AUC0-t, lungs ([1]; rat, 0.3 mg/kg i.p.): 3870.66 ± 680.07 ng·min/mL or ng·min/g
Cmax, heart ([1]; rat, 0.3 mg/kg i.p.): 8.90 ± 8.15 ng/mL or ng/g
Cmax, kidneys ([1]; rat, 0.3 mg/kg i.p.): 65.73 ± 34.94 ng/mL or ng/g
Cmax, liver ([1]; rat, 0.3 mg/kg i.p.): 115.22 ± 93.46 ng/mL or ng/g
Cmax, lungs ([1]; rat, 0.3 mg/kg i.p.): 54.20 ± 21.61 ng/mL or ng/g
AUC0-t, heart ([1]; rat, 0.3 mg/kg i.p., 0.3 mg/kg): 1040.7 ng·min/mL or ng·min/g and 1040.74 ± 448.65 ng·min/mL or ng·min/g
AUC0-t, kidneys ([1]; rat, 0.3 mg/kg i.p., 0.3 mg/kg): 7488.1 ng·min/mL or ng·min/g and 7488.06 ± 4372.92 ng·min/mL or ng·min/g
Cmax, brain ([1]; rat, 0.3 mg/kg i.p., 0.3 mg/kg): 11.63 ± 3.13 ng/mL or ng/g
t1/2λz, serum ([1]; rat, 0.3 mg/kg i.p., 0.3 mg/kg): 116 min and 116.18 ^a ± 17.14 min
Total Exploratory Time in T2 Session ([2]; 0.3 mg/kg i.p. + MK-801 0.1 mg/kg): 52.67 ± 5.37 s
Total Exploratory Time in T2 Session ([2]; 1 mg/kg i.p. + MK-801 0.1 mg/kg): 40.33 ± 6.66 s
Total Exploratory Time in T2 Session ([2]; 3 mg/kg i.p. + MK-801 0.1 mg/kg): 42.88 ± 2.10 F(4,27) = 3.5450; p < 0.05 s
minimal effective dose in NOR test ([2]; i.p., reversal of MK-801-induced memory impairment): 0.3 mg/kg
Total Distance ([3]; 0.3 mg/kg i.p.): 4372 ± 132 cm
X Ambulation ([3]; 0.3 mg/kg i.p.): 180 ± 9
Y Ambulation ([3]; 0.3 mg/kg i.p.): 101 ± 9
Total Distance ([3]; 1 mg/kg i.p.): 3987 ± 281 cm
X Ambulation ([3]; 1 mg/kg i.p.): 149 ± 18
Y Ambulation ([3]; 1 mg/kg i.p.): 78 ± 9
Total Distance ([3]; 3 mg/kg i.p.): 4595± 191 F(3,23) = 2.9772; NS cm
X Ambulation ([3]; 3 mg/kg i.p.): 168 ± 6 F(3,23) = 1.9417; NS
Y Ambulation ([3]; 3 mg/kg i.p.): 115 ± 7 F(3,23) = 3.1727; NS
Ki [4]: 6 ± 2 nM

Reference: article PMC8509428, “The Phenoxyalkyltriazine Antagonists for 5-HT6 Receptor with Promising Procognitive and Pharmacokinetic Properties In Vivo in Search for a Novel Therapeutic Approach to Dementia Diseases” (International Journal of Molecular Sciences, 2021)
